Where two headings read alike, the source gives them in different places.
Key:
Male Wistar rats = assay: Effect of preventing drunken sickness (hangover) after ethyl alcohol administration; assay type: in vivo; settings: 2 mg/kg oral together with 10 ml/kg of 40 (v/v) % ethyl alcohol
From the text: Male Wistar rats were preliminarily raised for 1 week. Then, the rats of 110 to 120 g in body weight were used. The rats were fasted overnight before the experiment and given neither food nor water during the experiment. The rats were divided into an alcohol single administration group (control group) and a sphingomyelin administration group. Each group contained 5 individuals. […] After administration, the rats were observed until they recovered from drunken symptoms.

[1] = system: enteropathogenic E. coli O-157; assay: Test I on prevention of enteropathogenic E. coli O-157 infection; assay type: in vivo; settings: BALB/c germ-free mice, 5 mg/day oral
Experimental: Test I on prevention of enteropathogenic E. coli O-157 infection
The intake of sphingomyelin was 5 mg/day. On the 3rd day from the start of taking, the mice were infected with enteropathogenic E. coli O-157 by oral administration at a dose of 8.5×10^6 cfu/mouse. After infection, the mice were also allowed to orally take sphingomyelin on a daily basis. […] The survival rate of the […] depending on the number of days after the administration of enteropathogenic E. coli O-157 is shown in Table 7. As is evident from the results of Table 7, the survival rate of the germ-free mice was enhanced by the administration of sphingomyelin.

[2] = system: phototoxic pigmentation caused by treatment with 8MOP; assay type: in vivo, female ICR mice; settings: for depigmentation / pigmentation grade (Table 12: +3 whitened to −3 evidently blackened): 5% sample, 50 μl once daily
From the text: An anti-pigmentation effect and the degree of pigmentation (shown in Table 12) produced as a side effect were rated by four-grade evaluation (+: depigmentation effect, −: side effect). […] Moreover, no agent was applied to a control group. […] [table]

EAE rats = assay: Effect of sphingomyelin on EAE rats; assay type: in vivo, Lewis rats; settings: for Cumulative score of symptoms: six-grade score 0-5
Experimental: A therapeutic effect on EAE rats serving as models of multiple sclerosis, one of demyelinating diseases, will be shown. The hind footpad of Lewis rats (female, 6 week old) in groups each containing 5 individuals was immunized with a mixture of syngeneic rat brain homogenates with an equal amount of a complete Freund adjuvant (manufactured by Difco) as an antigen for inducing EAE at a dose of 80 mg in terms of the amount of the brain homogenates. Sphingomyelin was intraperitoneally administered at a dose shown in Table 9 for 18 days from the immunization day. The measurement of body weights and the observation of EAE symptoms were performed every day. […] The therapeutic effect was assessed based on the cumulative score of the symptoms in each group. […] Only a saline was administered to the control group.

cholera toxin = settings: in vivo
[3] = system: Chinese hamster lung fibroblast cell line V79; assay type: cell-based
Experimental: The antioxidative activity of sphingomyelin was measured according to the method of Nakayama et al. (Mutation Research, vol. 281, pp. 77-80, 1992). […] Then, the antioxidative activity of sphingomyelin was determined using reduction in colony forming activity attributed to hydrogen peroxide as an index for toxicity and assessed based on the extent to which the colony forming activity recovered from such reduction by adding sphingomyelin to the cultured cells for test. The cultured cells for test were inoculated onto a plate and precultured (cell adhesion) for 2 hours. […] The cultured cells for test were incubated for 4 hours so that the cells were allowed to take up sphingomyelin, prior to hydrogen peroxide. Next, the cells were reacted for 30 minutes by the addition of hydrogen peroxide and damaged. After reaction, the cells were cultured for 5 days in a medium containing serum. In this context, the concentration of hydrogen peroxide was set to 60 μM at which colony forming activity was decreased to a few % to approximately 40%. […] In this context, higher cell viability indicates the higher antioxidative activity of the added sphingomyelin.

β-Lg = assay: Test on effect of blocking allergen invasion (β-Lg and anti-β-Lg IgE in blood); assay type: in vivo, Infant Wistar rats; settings: for Anti-β-Lg IgE: blood 2 weeks after β-Lg; for β-Lg: blood 1 hour after β-Lg
Experimental: Infant Wistar rats (14 day old, body weight: around 20 g, 8 individuals, Charles River Laboratories, Japan) were divided into a control group and sphingomyelin administration groups (SPM administration groups), and all the groups were raised using artificial milk having composition closely analogous to that of rat milk. […] On the 21st day, 100 μl of a β-Lg solution (10 mg/ml) was orally administered thereto. Blood collected from the rats after 1 hour and after 2 weeks. On the other hand, a β-Lg solution and a complete Freund adjuvant were mixed for emulsification, and the emulsion was hypodermically injected to 3 locations (both sides of the back, and the hip) of a 3-month-old rabbit (Japanese white, male, manufactured by KITAYAMA LABES Co., Ltd.) to obtain anti-β-Lg serum. A β-Lg amount in the above-described blood after 1 hour was measured by a sandwich ELISA method using this antiserum as a primary antibody and a horseradish peroxidase (PO)-labeled secondary antibody. Moreover, anti-β-Lg IgE in the above-described blood after 2 weeks was measured by an ELISA method using β-Lg and a PO-labeled anti-rat IgE antibody (manufactured by Nordic).

[4] = system: erythrocyte membrane ghost; assay: Antioxidative activity: erythrocyte membrane ghost oxidation (TBA reaction); assay type: biochemical, rabbit
Experimental: The antioxidative activity of sphingomyelin was measured according to the method of Osawa et al. (J. Agric. Food Chem., vol. 35, pp. 809-812, 1987). Specifically, preserved rabbit blood was mixed with an equal amount of an isotonic solution (10 mM phosphate buffer/152 mM sodium chloride, pH 7.4), followed by centrifugation at 1,500×g (3,500 rpm) at 4° C. for 20 minutes. Blood corpuscles washed by repeating this procedure three times were mixed with an equal amount of a hypotonic solution (10 mM phosphate buffer, pH 7.4), followed by centrifugation at 20,000×g (11,000 rpm) at 4° C. for 40 minutes. Then, loose pellets (erythrocyte membrane ghost) obtained by repeating this procedure four times were used to examine antioxidative activity. […] An oxidation reaction was performed by the addition of an oxidizing agent. Subsequently, a TBA reaction was performed. Then, absorbance at 532 nm was measured to quantify an oxidation product.

[5] = 1 mg/kg intraperitoneal for 18 days
[6] = 2 mg/kg intraperitoneal for 18 days

## sphingomyelin
Male Wistar rats
  symptoms after administration: only staggering gait
Male Wistar rats; control 5 hours
  time to recover from drunken symptoms: ≤ 1 h
[1]; 0 days after administration of E. coli
  Survival rate: 100%
[1]; 2 days after administration of E. coli
  Survival rate: 100%
[1]; 4 days after administration of E. coli
  Survival rate: 100%
[1]; 6 days after administration of E. coli
  Survival rate: 80%
[1]; 8 days after administration of E. coli
  Survival rate: 70%
[2]; application period 1 week
  depigmentation / pigmentation grade (Table 12: +3 whitened to −3 evidently blackened): 0.4
[2]; application period 2 weeks
  depigmentation / pigmentation grade (Table 12: +3 whitened to −3 evidently blackened): 0.8
[2]; application period 3 weeks
  depigmentation / pigmentation grade (Table 12: +3 whitened to −3 evidently blackened): 1.2
[2]; application period 4 weeks
  depigmentation / pigmentation grade (Table 12: +3 whitened to −3 evidently blackened): 1.1
[2]; application period 5 weeks
  depigmentation / pigmentation grade (Table 12: +3 whitened to −3 evidently blackened): 0.9
[2]; application period 6 weeks
  depigmentation / pigmentation grade (Table 12: +3 whitened to −3 evidently blackened): 0.3
[2]; application period 7 weeks
  depigmentation / pigmentation grade (Table 12: +3 whitened to −3 evidently blackened): 0
[2]; application period 8 weeks
  depigmentation / pigmentation grade (Table 12: +3 whitened to −3 evidently blackened): 0
[2]; mouse, in vivo
  side effect (pigmentation) on application: no side effect
EAE rats; [5]
  Cumulative score of symptoms with respect to saline-administered control group defined as 100%: 18%
  Frequency of onset: 2/5
  The average number of days required for onset: 15.2
  Cumulative score of symptoms: 10
EAE rats; [6]
  Cumulative score of symptoms with respect to saline-administered control group defined as 100%: 19%
  Frequency of onset: 2/5
  The average number of days required for onset: 14.5
  Cumulative score of symptoms: 11
Cholera toxin
  Inhibition rate: 38.9 ± 3.8%
[3]
  own toxicity (colony forming activity): no reduction in colony forming activity
β-Lg; 0.05 mg/kg/day oral
  Anti-β-Lg IgE: 498.2 ± 156.8 ng/mL
  β-Lg: 38.6 ± 14.7 ng/mL
β-Lg; 0.1 mg/kg/day oral
  Anti-β-Lg IgE: 190.6 ± 77.8 ng/mL
  β-Lg: 13.4 ± 6.6 ng/mL
β-Lg; 5.0 mg/kg/day oral
  Anti-β-Lg IgE: 165.4 ± 65.9 ng/mL
  β-Lg: 5.6 ± 3.8 ng/mL
[4]; sample concentration 0.01 mM, lower = higher antioxidative activity
  absorbance at 532 nm (oxidation product) with respect to absence of added sphingomyelin defined as 100%: 98%
[4]; sample concentration 0.1 mM
  absorbance at 532 nm (oxidation product) with respect to absence of added sphingomyelin defined as 100%: 95%
[4]; sample concentration 1 mM
  absorbance at 532 nm (oxidation product) with respect to absence of added sphingomyelin defined as 100%: 80%
[4]; sample concentration 10 mM
  absorbance at 532 nm (oxidation product) with respect to absence of added sphingomyelin defined as 100%: 61%

Source: US8486916B2, “Medicine, food and drink or feed containing sphingomyelin” (Megmilk Snow Brand Co., Ltd., priority 2005, dated 2013)
